Test results: US20240245711A1, “A 19-NOR C3,3-DISUBSTITUTED C21-N-PYRAZOLYL STEROID FOR THE TREATMENT OF MAJOR DEPRESSIVE DISORDER” (Sage Therapeutics, Inc., priority 2021, published 2024)

Tested on: adult subjects with Major Depressive Disorder
Assay: Phase 3 open-label 1-year study: HAM-D total score, response and remission
Assay type: in vivo, human
From the text: Secondary Objective: To assess the need for re-treatment with Compound (1) following initial treatment in adults with MDD currently experiencing an MDE over a 1-year period, and to assess the response of initial treatment and re-treatment(s) with Compound (1) following an initial 2-week treatment period in adults with MDD currently experiencing an MDE over a 1-year period.
Secondary Endpoints: The need for re-treatment with Compound (1) as assessed by: time to first re-treatment (Kaplan-Meier curves), number of subjects achieving the requirements for re-treatment, number of re-treatment cycles for each subject, the response of initial treatment and/or re-treatment as assessed by: change from baseline in the 17-item Hamilton Rating Scale for Depression (HAM-D) total score at the end of each 14-day treatment (initial and/or re-treatment) period, HAM-D response at the end of each 14-day treatment (initial and/or re-treatment) period, defined as a ≥50% reduction in HAM-D score from baseline, HAM-D remission at the end of each 14-day treatment (initial and/or re-treatment) period, defined as HAM-D total score≤7, Clinical Global Impression-Improvement (CGI-I) response, defined as “much improved” or “very much improved”, at the end of each 14-day treatment (initial and/or re-treatment) period, change from baseline in Clinical Global Impression-Severity (CGI-S) score at the end of each 14-day treatment (initial and/or re-treatment) period.
Study Population: Subjects were 18-75 years old, diagnosed with major depressive disorder (MDD) with a MADRS total score of ≥28 and a HAM-D total score of ≥20 at Screening and Day 1 (prior to dosing).
Treatment Groups: The 30 mg and 50 mg dose groups were separated by time of enrollment. The study is comprised of two cohorts: one with Compound (1) 30 mg as a starting dose (30 mg Cohort: n=725), an initial cohort with Compound (1) 50 mg as a starting dose (50 mg Cohort: n=199). A patient receiving Compound (1) 30 mg could be dose reduced to 20 mg and patients receiving Compound (1) 50 mg could be dose reduced to 40 mg (based on tolerability). In all cohorts, Compound (1) is self-administered by patients as an oral therapy once nightly with food for 14 days.
Eligible subjects were given Compound (1)—to be taken at home in the evening with meal.
The cohorts pertaining to the different doses that the subjects received were defined as following: • 50 mg cohort: This cohort includes subjects who have initiated treatment with 50 mg and received re-treatment with 50 mg only. • 30 mg cohort: This cohort includes subjects who have initiated treatment with 30 mg regardless of the dose they have received in re-treatments. • Low dose cohort: This cohort includes subjects who have initiated treatment with 30 mg and received re-treatment with 30 mg only. • Dose switch cohort: This cohort includes subjects who have received initial treatment with 30 mg and at least one subsequent re-treatment with 50 mg. • Study Period X: starts on the date of the first dose of Compound (1) in cycle X and goes up to one day prior to the first dose of the next cycle. In some embodiments, X is any number from 1 to 5. • Treatment Period X: starts on the date of the first dose of Compound (1) in cycle X and goes up to one day after the last dose in cycle X. In some embodiments, X is any number from 1 to 5. • Treatment Cycle X: starts on the date of the first dose of Compound (1) in cycle X and goes up to 14 days after the last dose in cycle X. The treatment cycles may be denoted as C1-C5. • Observation period X: starts the day after Treatment Cycle X ends and goes up to one day prior to the start of next treatment cycle. In some embodiments, X is any number from 1 to 5.
Analysis Sets: The safety set was defined as all subjects who were administered study drug. The period-specific safety set includes subjects in the safety set who were administered study drug in the corresponding treatment cycle. […]

[1] = Day 15 of first treatment cycle, overall study population
[2] = Dose Switch Cohort (FAS), first dose in cycle 30 mg, Cycle 2, Day 15
[3] = Dose Switch Cohort (FAS), first dose in cycle 30 mg, Cycle 3, Day 15
[4] = Dose Switch Cohort (FAS), first dose in cycle 30 mg, Cycle 4, Day 15
[5] = Low Dose Cohort (FAS), of Non-responders at D15 in C3 (N = 33)
[6] = Low Dose Cohort (FAS), of Non-responders at D15 in C4 (N = 18)
[7] = Low Dose Cohort (FAS), of Non-responders at D15 in C5 (N = 7)
[8] = Low Dose Cohort (FAS), subjects dosed in Cycle 2 (199), Cycle 1, Day 15
[9] = Low Dose Cohort (FAS), subjects dosed in Cycle 2 (199), Cycle 1, Day 28
[10] = Low Dose Cohort (FAS), subjects dosed in Cycle 2 (199), Cycle 2, Day 15
[11] = Low Dose Cohort (FAS), subjects dosed in Cycle 2 (199), Cycle 2, Day 28
[12] = Low Dose Cohort (FAS), subjects dosed in Cycle 3 (83), Cycle 1, Day 15
[13] = Low Dose Cohort (FAS), subjects dosed in Cycle 3 (83), Cycle 2, Day 15
[14] = Low Dose Cohort (FAS), subjects dosed in Cycle 3 (83), Cycle 2, Day 28
[15] = Low Dose Cohort (FAS), subjects dosed in Cycle 3 (83), Cycle 3, Day 15
[16] = Low Dose Cohort (FAS), subjects dosed in Cycle 3 (83), Cycle 3, Day 28

`C[C@@]1(O)CC[C@H]2[C@H](CC[C@@H]3[C@@H]2CC[C@]2(C)[C@@H](C(=O)Cn4cc(C#N)cn4)CC[C@@H]32)C1` [Compound (1), 1-(2-((3R,5R,8R,9R,10S,13S,14S,17S)-3-hydroxy-3,13-dimethylhexadecahydro-1H-cyclopenta[a]phenanthren-17-yl)-2-oxoethyl)-1H-pyrazole-4-carbonitrile] was tested, and the “Withdrawn in Treatment Cycle 1: Exit for non-response, n (%)” value (50 mg Cohort (n = 199)) was 31 (15.6%), the “Subjects achieving remission (HAM-D less than or equal to 7)” value (50 mg Cohort, Day 15 Treatment Cycle 1, Example 4, 80 subjects of 199) was 40.2% and the “Subjects achieving response (at least 50% reduction in HAM-D from baseline)” value (50 mg Cohort, Day 15 Treatment Cycle 1, Example 4, about 149 subjects of 199) was 74.9%. For the same compound, the HAMD-17 remission rate [1] was 40.8%, the HAMD-17 response rate [1] was 75.0% and the “Mean (SD) CFB in HAMD-17” value (Day 15 of first treatment cycle, overall study population (30 mg and 50 mg Cohorts)) was −15.4 (6.9). For the same compound, the “Responders at D15 in C1 who did not discontinue in C1 (FAS), % of subjects dosed in C1” value (Dose Switch Cohort (80 dosed)) was 80 (100%), the “HAM-D Total Score, Mean Change from Period-Specific Baseline” value (from here on “HAM-D Total Score, Mean Change”) [2] was −15.5 and the “HAM-D Total Score, Mean Percent Change from Period-Specific Baseline” value (from here on “HAM-D Total Score, Mean Percent Change”) [2] was −59.1. For the same compound, the “HAM-D Total Score, Mean Change” value [3] was −15.8, the “HAM-D Total Score, Mean Percent Change” value [3] was −60.0 and the “HAM-D Total Score, Mean Change” value [4] was −14.8. For the same compound, the “HAM-D Total Score, Mean Percent Change” value [4] was −60.0, the “Responders at D15 in C1 who did not discontinue in C1 (FAS), % of subjects dosed in C1” value (Low Dose Cohort (645 dosed)) was 409 (63.4%) and the “HAM-D Non-responder rate at D15 (of subjects dosed in cycle)” value (“HAM-D Non-responder rate at D15” below) (Low Dose Cohort (FAS), C2 (N = 70 of 199)) was “(N = 70, 35.2%)”. For the same compound, the “HAM-D Non-responder rate at D15” value (Low Dose Cohort (FAS), C3 (N = 33 of 83)) was “(N = 33, 39.8%)”, the “HAM-D Non-responder rate at D15” value (Low Dose Cohort (FAS), C4 (N = 18 of 43)) was “(N = 18, 41.9%)” and the “HAM-D Non-responder rate at D15” value (Low Dose Cohort (FAS), C5 (N = 7 of 20)) was “(N = 7, 35%)”. For the same compound, the “Status in C2: Non-responder” value [5] was “(57.6%)”, the “Status in C2: Responder” value [5] was “(42.4%)” and the “Status in C2: Non-responder” value [6] was “(55.6%)”. The “Status in C2: Responder” value [6] was “(44.4%)”, the “Status in C3: Non-responder” value [6] was 9 (50.0%) and the “Status in C3: Responder” value [6] was “(50.0%)”. For the same compound, the “Status in C2: Non-responder” value [7] was “(85.7%)”, the “Status in C2: Responder” value [7] was “(14.3%)” and the “Status in C3: Non-responder” value [7] was 3 (42.9%). The “Status in C3: Responder” value [7] was “(57.1%)”, the “Status in C4: Non-responder” value [7] was 5 (71.4%) and the “Status in C4: Responder” value [7] was 1 (14.4%). The “HAM-D Total Score, Mean Change” value [8] was −17.4, the “HAM-D Total Score, Mean Percent Change” value [8] was −70.0 and the “HAM-D Total Score, Mean Change” value [9] was −13.8. The “HAM-D Total Score, Mean Percent Change” value [9] was −55.2, the “HAM-D Total Score, Mean Change” value [10] was −12.3 and the “HAM-D Total Score, Mean Percent Change” value [10] was −52.6. For the same compound, the “HAM-D Total Score, Mean Change” value [11] was −11.5, the “HAM-D Total Score, Mean Percent Change” value [11] was −49.1 and the “HAM-D Total Score, Mean Change” value [12] was −17.2. The “HAM-D Total Score, Mean Percent Change” value [12] was −68.8, the “HAM-D Total Score, Mean Change” value (Low Dose Cohort (FAS), subjects dosed in Cycle 3 (83), Cycle 1, Day 28) was 83, −12.7, — and the “HAM-D Total Score, Mean Change” value [13] was −12.7. For the same compound, the “HAM-D Total Score, Mean Percent Change” value [13] was −52.9, the “HAM-D Total Score, Mean Change” value [14] was −11.2 and the “HAM-D Total Score, Mean Percent Change” value [14] was −46.5. The “HAM-D Total Score, Mean Change” value [15] was −12.5, the “HAM-D Total Score, Mean Percent Change” value [15] was −52.4 and the “HAM-D Total Score, Mean Change” value [16] was −11.9. The “HAM-D Total Score, Mean Percent Change” value [16] was −49.8 and the “HAM-D Total Score, Mean Change” value (Low Dose Cohort (FAS), subjects dosed in Cycle 4 (43), Cycle 1, Day 15) was −17.0.
